The values that follow come from PMC11200976, “Pitavastatin Calcium Confers Fungicidal Properties to Fluconazole by Inhibiting Ubiquinone Biosynthesis and Generating Reactive Oxygen Species” (Antioxidants, 2024).

In series [1] the test system is C. albicans SC5314, SN152, cmp1-aid∆/cmp1-aid∆, and PADH1-UPC2 strains. Description: FLC disk diffusion assays (25 μg FLC disk, 5 μM adjuvant). It counts as cell-based, Candida albicans. The settings on record: for synergistic lethal effects with FLC compared to GdA and CsA (disk diffusion): Figure S3; for effect on FLC tolerance in FLC disk diffusion, all four strains: SC5314, SN152, cmp1-aid∆/cmp1-aid∆; for effect on FLC tolerance in FLC disk diffusion, PADH1-UPC2 strain / effect on FLC tolerance in FLC disk diffusion, all four strains: PADH1-UPC2. On the procedure:
Yeast cells were cultured overnight at a temperature of 30 °C, and the resulting cell suspension was diluted to a concentration of 1 × 10^7 cells/mL in phosphate-buffered saline (PBS). At a concentration of 5 μM, the drugs were individually added to YPD plates for disk assays using a 25 μg FLC disk (6 mm, Liofilchem, Roseto degli Abruzzi, Italy). The plates were then incubated at 30 °C for 48 h. Subsequently, the disk was transferred to a drug-free YPD plate, which was incubated at 30 °C for 24 h and photographed.
For orientation: In agar diffusion tests the substance spreads into inoculated agar from a disc or well.

Series [2] relates to C. albicans. In words: Dose–matrix titration assays (synergy, with YPD recovery plates). It counts as cell-based, Candida albicans. The settings on record: for effect of azole combined with PIT: Figure 5B. On the procedure: The synergistic effects of drugs were conducted following the same procedure as the MIC assays. Specifically, 50 μL of drug A was distributed through two-fold serial dilution across seven plate columns. Subsequently, 50 μL of drug B was distributed in a two-fold serial dilution manner along seven rows of the plate. Furthermore, 100 μL of C. albicans cultures, adjusted to a density of 1 × 10^3 cells/mL, was dispensed into wells containing drugs and one control well devoid of any drugs. Before the 48 h OD600 readings, the plates were subjected to meticulous agitation to ensure the deposition of a representative 2 μL aliquot from each well onto newly prepared YPD recovery plates, thereby facilitating the evaluation of cellular recuperation following drug treatments. The recovery plates were subsequently incubated at a temperature of 30 °C for a duration ranging from 24 to 48 h, after which they were photographed. The experimental procedures were conducted in triplicate to ensure reliability and reproducibility.

Series [3] relates to C. albicans. In words: Broth microdilution assay of synergistic lethality with 4 μg/mL FLC (recovery on drug-free YPD). It counts as cell-based, Candida albicans. The settings on record: for Synergistic lethal concentrations: concentration of the compound that is synergistically lethal with 4 μg/mL FLC, C. albicans, recovery on drug-free YPD. A general note: In broth dilution the organism is exposed to a series of concentrations in liquid medium.

The test system of a further series is mice. In words: Acute toxicity, Up-and-Down procedure (OECD 425), intraperitoneal. It counts as in vivo. On the procedure: (§1) Following a previously described methodology, the intraperitoneal route was employed in adult mice. In brief, the primary test involved a sequential administration of doses at intervals of at least 48 h, with one mouse being dosed at a time. Initially, a dose below LD50 was administered intraperitoneally to a mouse. If the mouse survived, the subsequent mouse would receive 1.3 times the initial dose. Conversely, if the mouse died, the subsequent mouse would receive a dose decreased by 1.3 times the initial dose. Each mouse was monitored for 48 h before determining the subsequent mouse’s dosage and administration. The experiment was terminated upon five “survive or die” reversals within a consecutive set of six animals tested. Subsequently, the LD50 and its corresponding confidence interval were computed based on the conditions observed in all mice after the experiment.

Assay in series [4]: as above
The settings on record: C57BL/6, mouse, in vivo, ip, mice. It counts as in vivo. On the procedure: as §1

Structures can show the parent of a compound that is named as a salt. Where two headings read alike, the source gives them in different places.

Turning to `CCCCCCCCCCCC[N+](C)(C)CCOc1ccccc1` [domiphen bromide], the “synergistic lethal effects with FLC compared to GdA and CsA (disk diffusion)” value in series [1] is listed as “weaker synergistic lethal effects”. Moreover, the “concentration that renders FLC fungicidal (no recovery on YPD solid medium)” value in the series with C. albicans [2] (FLC ≤4 μg/mL, YPD, 30 °C, 48 h) is no more than 3.125 µM.

For `Clc1ccc(COC(Cn2ccnc2)c2ccc(Cl)cc2Cl)c(Cl)c1` (stereo not shown) [miconazole], the “effect of azole combined with PIT” value in the series on C. albicans [2] is “synergistic lethal effects”.

With `C[C@@H](c1ncncc1F)[C@](O)(Cn1cncn1)c1ccc(F)cc1F` [voriconazole], the “effect of azole combined with PIT” value in the series on C. albicans [2] was “synergistic lethal effects”.

With polymyxin B sulfate, the “effect on FLC tolerance in FLC disk diffusion, PADH1-UPC2 strain” value in series [1] is “unsuccessful in reducing FLC tolerance”. Moreover, the Synergistic lethal concentrations in the series on C. albicans [3] was found to be 6.25 µM. Besides, in the series with C. albicans [2] (FLC ≤4 μg/mL, YPD, 30 °C, 48 h), the “concentration that renders FLC fungicidal (no recovery on YPD solid medium)” value was no more than 3.125 µM. The molecule also yielded a median lethal dose (LD50) in the series with mice of 25 mg/kg.

In the case of `C[C@@H]1CC[C@@]2(OC1)O[C@H]1C[C@H]3[C@@H]4CC=C5C[C@@H](O[C@@H]6O[C@H](CO)[C@@H](O[C@@H]7O[C@@H](C)[C@H](O)[C@@H](O)[C@H]7O)[C@H](O)[C@H]6O[C@@H]6O[C@@H](C)[C@H](O)[C@@H](O)[C@H]6O)CC[C@]5(C)[C@H]4CC[C@]3(C)[C@H]1[C@@H]2C` [dioscin], the “synergistic lethal effects with FLC compared to GdA and CsA (disk diffusion)” value in series [1] is “weaker synergistic lethal effects”. Moreover, the Synergistic lethal concentrations in the series with C. albicans [3] came out at 6.25 µM. In the series with C. albicans [2] (FLC ≤4 μg/mL, YPD, 30 °C, 48 h), the “concentration that renders FLC fungicidal (no recovery on YPD solid medium)” value is no more than 3.125 µM. This molecule had a median lethal dose (LD50) at 48 h in series [4] of 32 mg/kg.

For `Oc1cc(Cl)ccc1Oc1ccc(Cl)cc1Cl` [triclosan], the “effect on FLC tolerance in FLC disk diffusion, all four strains” value (shortened to “effect on FLC tolerance … all four strains”) in series [1] was “made FLC fungicidal”. In the series with C. albicans [3], the Synergistic lethal concentrations was 0.3906 µM. For the same molecule, the “concentration that renders FLC fungicidal (no recovery on YPD solid medium)” value in the series with C. albicans [2] (FLC ≤4 μg/mL, YPD, 30 °C, 48 h) was no more than 3.125 µM. In series [4], this molecule registered a 50% lethal dose (LD50) at 48 h of 62.6 mg/kg.

`CCCCCCCCN=c1ccn(CCCCCCCCCCn2ccc(=NCCCCCCCC)cc2)cc1` [octenidine dihydrochloride]: the “synergistic lethal effects with FLC compared to GdA and CsA (disk diffusion)” value in series [1] was “weaker synergistic lethal effects”. Besides, the “concentration that renders FLC fungicidal (no recovery on YPD solid medium)” value with C. albicans [2] (FLC ≤4 μg/mL, YPD, 30 °C, 48 h) was no more than 3.125 µM.

Turning to `CC(=O)N1CCN(c2ccc(OCC3COC(Cn4ccnc4)(c4ccc(Cl)cc4Cl)O3)cc2)CC1` (stereo not shown) [ketoconazole], the “effect of azole combined with PIT” value in the series with C. albicans [2] is given as “synergistic lethal effects”.

Regarding ivermectin, in series [1], the “synergistic lethal effects with FLC compared to GdA and CsA (disk diffusion)” value was “weaker synergistic lethal effects”. The Synergistic lethal concentrations in the series on C. albicans [3] came to 3.125 µM. Moreover, the “concentration that renders FLC fungicidal (no recovery on YPD solid medium)” value with C. albicans [2] (FLC ≤4 μg/mL, YPD, 30 °C, 48 h) is no more than 3.125 µM.

Turning to `Cc1ccc(Sc2ccccc2N2CCNCC2)c(C)c1` [vortioxetine], the “effect on FLC tolerance … all four strains” value in series [1] is recorded as “made FLC fungicidal”. Also, the Synergistic lethal concentrations in the series on C. albicans [3] worked out at 6.25 µM. Besides, the “concentration that renders FLC fungicidal (no recovery on YPD solid medium)” value with C. albicans [2] (FLC ≤4 μg/mL, YPD, 30 °C, 48 h) was no more than 3.125 µM. The LD50 at 48 h in series [4] was found to be 48.3 mg/kg.

For the molecule `CCC(C)n1ncn(-c2ccc(N3CCN(c4ccc(OCC5COC(Cn6cncn6)(c6ccc(Cl)cc6Cl)O5)cc4)CC3)cc2)c1=O` (stereo not shown) [itraconazole], the “effect of azole combined with PIT” value in the series on C. albicans [2] was “synergistic lethal effects”.

`N=C(NCCCCCCNC(=N)NC(=N)Nc1ccc(Cl)cc1)NC(=N)Nc1ccc(Cl)cc1.O=C(O)[C@H](O)[C@@H](O)[C@H](O)[C@H](O)CO.O=C(O)[C@H](O)[C@@H](O)[C@H](O)[C@H](O)CO` [chlorhexidine digluconate]: in series [1], the “effect on FLC tolerance in FLC disk diffusion, PADH1-UPC2 strain” value is recorded as “unsuccessful in reducing FLC tolerance”. The “concentration that renders FLC fungicidal (no recovery on YPD solid medium)” value in the series with C. albicans [2] (FLC ≤4 μg/mL, YPD, 30 °C, 48 h) was no more than 3.125 µM.

`CC[C@@H]1/C=C(\C)C[C@H](C)C[C@H](OC)[C@H]2O[C@@](O)(C(=O)C(=O)N3CCCC[C@H]3C(=O)O[C@H](/C(C)=C/[C@@H]3CC[C@H](Cl)[C@H](OC)C3)[C@H](C)[C@@H](O)CC1=O)[C@H](C)C[C@@H]2OC` [pimecrolimus]: in series [1], the “effect on FLC tolerance … all four strains” value was “made FLC fungicidal”. In addition, in the series on C. albicans [3], the Synergistic lethal concentrations came to 0.1953 µM. Besides, the “concentration that renders FLC fungicidal (no recovery on YPD solid medium)” value with C. albicans [2] (FLC ≤4 μg/mL, YPD, 30 °C, 48 h) is no more than 3.125 µM. The molecule also gave an LD50 at 48 h in series [4] of 42 mg/kg.

Turning to `COC1=C2C[C@@H](C)C[C@H](OC)[C@H](O)[C@@H](C)/C=C(\C)[C@H](OC(N)=O)[C@@H](OC)/C=C\C=C(/C)C(=O)NC(=CC1=O)C2=O` [GdA, geldanamycin], the “effect on FLC tolerance … all four strains” value in series [1] was “effectively eradicated the zones of FLC inhibition”. This molecule showed an LD50 at 48 h in series [4] of 19 mg/kg.

On to bleomycin sulfate, for which, in series [1] (cmp1-aid∆/cmp1-aid∆), the “effect on FLC tolerance in FLC disk diffusion, cmp1-aid∆/cmp1-aid∆ strain” value is given as “failed to clear the zone of FLC inhibition”. The “concentration that renders FLC fungicidal (no recovery on YPD solid medium)” value with C. albicans [2] was no more than 3.125 µM. For the same molecule, the LD50 in the series on mice is 21.57 mg/kg.

As for `CN(C)N(C)C(=O)[C@@]1(Cc2ccccc2)CCCN(C(=O)[C@@H](Cc2c[nH]c3ccccc23)NC(=O)C(C)(C)N)C1.Cl` [Anamorelin (hydrochloride)], the Synergistic lethal concentrations with C. albicans [3] is 100 µM.

In the case of `CCCCCCCCCCCCCCCCOP(=O)([O-])OCC[N+](C)(C)C` [Miltefosine], the Synergistic lethal concentrations with C. albicans [3] worked out at 100 µM.

As to `C=CC(=O)Nc1cc(Nc2nccc(-c3cn(C)c4ccccc34)n2)c(OC)cc1N(C)CCN(C)C` [Osimertinib], the Synergistic lethal concentrations in the series on C. albicans [3] worked out at 100 µM.

Regarding `Cc1cc(CC(C)CC(C)(C)C)n(O)c(=O)c1.NCCO` (stereo not shown) [Piroctone olamine], in the series on C. albicans [3], the Synergistic lethal concentrations is 100 µM.

Turning to `Cc1ccc(O)c([C@H](CCN(C(C)C)C(C)C)c2ccccc2)c1` [Tolterodine], in the series on C. albicans [3], the Synergistic lethal concentrations worked out at 100 µM.

For the molecule `CNCC[C@@H](Oc1ccccc1C)c1ccccc1.Cl` [Atomoxetine (hydrochloride)], in the series with C. albicans [3], the Synergistic lethal concentrations worked out at 100 µM.

For the molecule `O=C(O)CCC(=O)O.O=C(O[C@H]1CN2CCC1CC2)N1CCc2ccccc2[C@@H]1c1ccccc1` [Solifenacin (Succinate)], the Synergistic lethal concentrations with C. albicans [3] amounted to 100 µM.

Turning to `CC(C)OC(=O)CCC/C=C\C[C@@H]1[C@@H](/C=C/[C@@H](O)COc2cccc(C(F)(F)F)c2)[C@H](O)C[C@@H]1O` [Travoprost], in the series with C. albicans [3], the Synergistic lethal concentrations came to 100 µM.

Take `COCc1c(C(C)C)nc(C(C)C)c(/C=C/[C@@H](O)C[C@@H](O)CC(=O)O)c1-c1ccc(F)cc1` [cerivastatin sodium]: the “effect on FLC tolerance … all four strains” value in series [1] is “made FLC fungicidal”. Also, the “synergistic lethal concentration (converts FLC from fungistatic to fungicidal)” value in the series on C. albicans [3] (with 4 μg/mL FLC, tested 100 μM to 0.1953 μM, 30 °C, 48 h) was no more than 6.25 µM. For the same molecule, the “concentration that renders FLC fungicidal (no recovery on YPD solid medium)” value in the series on C. albicans [2] (FLC ≤4 μg/mL, YPD, 30 °C, 48 h) is no more than 3.125 µM.

In the case of `OCCOCCN1CCN(C2=Nc3ccccc3Sc3ccccc32)CC1` [Quetiapine], the Synergistic lethal concentrations in the series on C. albicans [3] stood at 100 µM.

For the molecule `O=C(c1ccc(F)c(F)c1Nc1ccc(I)cc1F)N1CC(O)([C@@H]2CCCCN2)C1` (racemic) [Cobimetinib (racemate)], in the series with C. albicans [3], the Synergistic lethal concentrations was found to be 25 µM.

For the molecule `CCN1CCN(c2cc(-c3ccc(F)cc3)c3c(n2)CCCCCC3)CC1` [Blonanserin], the Synergistic lethal concentrations with C. albicans [3] is 50 µM.

One may read the LD50 as the dose expected to kill half of the subjects tested. A lower LD50 goes with a more toxic substance.
